Laboratory results published in article PMC11475369, “Exploring the Potential of Synthetic Cannabinoids: Modulation of Biological Activity of Normal and Cancerous Human Colon Epithelial Cells” (Cells, 2024).
Where “and” joins values, the source holds several entries; their conditions need not be identical. Equal entries are not always repeated.

Tests used:
HT29 cells [1] = test: Flow cytometry annexin V-FITC/PI, cell death types in HT29 cells; type: cell-based, human; settings: HT29, 25 μg/mL, 24 h; for viability at 25 µg/mL: Homo sapiens, HT-29, read-out: Percentage of viable cells
Experimental: (§1) In a further flow cytometric study measuring normal and tumor cell death types, the cells were exposed to the cannabinoids at a concentration of 25 μg/mL for 24 h.
(§2) The annexin V-fluorescein isothiocyanate (FITC)/propidium iodide (PI) apoptosis kit (BD Biosciences, BD Pharmingen™, San Jose, CA, USA) was used for the quantitative analysis of cannabinoid-induced cell death.
(§3) For the analyses, both adhered (after detaching the cells with 10 mM EDTA in PBS w/o Ca^2+ and Mg^2+ ions solution) and floating cells were collected after 24 h of incubation with the tested cannabinoids. After collection, the cells were gently centrifuged (1000 rpm/5 min.). Next, the supernatant was discarded, and the cell pellet was suspended in warm PBS w/o Ca^2+ and Mg^2+ ions and incubated for 5 min. at room temperature. The centrifugation procedure was repeated again and, following the manufacturer’s procedure, the cells were suspended in 100 μL of 1X Annexin V Binding Buffer with 5 μL of FITC Annexin V […] and 5 μL of propidium iodide (PI) (5 mM). The preparation was gently vortexed and incubated at room temperature for 15 min. in the dark. After that time, the cells were subjected to cytometric analysis. Before dosing the cells into the cytometer, 400 μL of 1X Binding Buffer was added. The cells were analyzed using a flow cytometer (BD FACSCalibur) with CellQuest Pro Version 6.0 software within 1 h after the staining was completed.

[2] = Ferric-reducing antioxidant power assay (FRAP)
Experimental: The antioxidant activity in the FRAP method determines the ability of the analyzed compounds to reduce iron ions. This allowed for the direct determination of the reducing capacity of the tested cannabinoids. The principle of the method was based on measuring the reduction in the tPtZ compound (iron-2,4,6-tripyridyl-S-[…] complex) under the influence of the cannabinoids. The following concentrations of the cannabinoids were prepared: 25, 100, and 200 μg/mL in Milli-Q water. […] The procedure was carried out as follows: each compound, at a concentration of 1 mL, was mixed with 1 mL of 0.2 M sodium phosphate buffer (pH 6.6) and 1 mL of 1% potassium ferricyanide. The mixture was vortexed and incubated for 30 min. at 37 °C. After the incubation, 1 mL of 10% trichloroacetic acid (w/v) was added to each sample, and the preparations were centrifuged at 1000 g for 5 min. Next, an equal volume of Milli-Q water and the upper layer of the samples (1 mL + 1 mL) were mixed with 100 μL of 0.1% ferric chloride and subjected to spectrophotometric reading at 700 nm using an EL800 Universal Microplate Reader (BioTek Instruments, Winooski, VT, USA). The higher the absorbance, the higher the iron ion-reducing activity of the tested cannabinoids is.

HT29 cells [3] = test: Nitric oxide (NOx) release in HT29 culture, Griess method; type: cell-based, human; settings: HT29 cancer cells, 0–200 μg/mL, 24 h
Experimental: In this spectrophotometric method, the stable end products (nitrate and nitrite) were analyzed in the normal and tumor culture supernatants after 24 h of incubation of the cells with the cannabinoids in the concentration range of 0–200 μg/mL. The Griess reaction was applied. This method involves a 2-step reaction, whose product is a red-pink azo dye. The amount of this dye is directly proportional to the amount of NO. The cells were cultured for 24 h in 24-well plates (1 mL/well, density 1 × 10^5 cells/mL); next, after withdrawing the culture fluid, the tested cannabinoids were added to the wells at a volume of 1 mL/well and the incubation was carried out for another 24 h. After the incubation, the culture media were collected and frozen at −80 °C for no longer than 1 month. For calibration and quantitative analysis, the standard curve was prepared using 0.5–25 μM sodium nitrite (NaNO2). Thawed and centrifuged (5000 rpm/5 min.) supernatant samples and the standard were poured into a 96-well flat-bottomed plate at 100 µL/well. Each sample was analyzed in triplicate. […] Finally, the absorbance of the samples was spectrophotometrically read at 570 nm using an EL800 Universal Microplate Reader (BioTek Instruments, Winooski, VT, USA).

CCD 841 CoTr cells [4] = test: Nitric oxide (NOx) release in CCD 841 CoTr culture, Griess method; type: cell-based, human; settings: CCD 841 CoTr normal cells, 0–200 μg/mL, 24 h
Experimental: In this spectrophotometric method, the stable end products (nitrate and nitrite) were analyzed in the normal and tumor culture supernatants after 24 h of incubation of the cells with the cannabinoids in the concentration range of 0–200 μg/mL. The Griess reaction was applied. This method involves a 2-step reaction, whose product is a red-pink azo dye. The amount of this dye is directly proportional to the amount of NO. The cells were cultured for 24 h in 24-well plates (1 mL/well, density 1 × 10^5 cells/mL); next, after withdrawing the culture fluid, the tested cannabinoids were added to the wells at a volume of 1 mL/well and the incubation was carried out for another 24 h. After the incubation, the culture media were collected and frozen at −80 °C for no longer than 1 month. For calibration and quantitative analysis, the standard curve was prepared using 0.5–25 μM sodium nitrite (NaNO2). Thawed and centrifuged (5000 rpm/5 min.) supernatant samples and the standard were poured into a 96-well flat-bottomed plate at 100 µL/well. Each sample was analyzed in triplicate. Subsequently, 100 µL/well of Griess reagent (1% sulfanilamide/0.1% N-(1-naphthyl)ethylenediamine dihydrochloride) in 3% H3PO4 was added to all wells and incubated at room temperature for 10 min. Finally, the absorbance of the samples was spectrophotometrically read at 570 nm using an EL800 Universal Microplate Reader (BioTek Instruments, Winooski, VT, USA).

[5] = Flow cytometry annexin V-FITC/PI, cell death types in CCD 841 CoTr cells; type: cell-based, human; settings: human, CCD 841 CoTr cells (normal cells), read-out: Percentage of viable cells
Experimental: as §1, §2, §3

CCD 841 CoTr cells [6] = test: as above; type: cell-based, human; settings: 25 μg/mL, 24 h
Experimental: as §1, §2, §3

[7] = cannabinoid concentration 25 μg/mL
[8] = cannabinoid concentration 100 μg/mL
[9] = cannabinoid concentration 200 μg/mL

CCCCCc1cc2c3c(c1)OC(C)(C)C1CCC(C)(CC31)O2 (centres unmarked) [CBT, cannabicitran]
Cells in late apoptosis, more than in the control (HT29 cells [1]): 49.2% | Cells in necrosis, more than in the control (HT29 cells [1]): 3.24% | Percentage of cells in early apoptosis (HT29 cells [1]): 0.91 ± 0.16% | Percentage of cells in late apoptosis (HT29 cells [1]): 52.23 ± 1.26 % | Percentage of cells in necrosis (HT29 cells [1]): 3.96 ± 0.40 % | Reduction in the number of viable cells compared to the control (HT29 cells [1]): 52.25% | viability at 25 µg/mL (HT29 cells [1]): 42.9 ± 0.96% | Reduction Value Corresponding to the Ascorbic Acid Concentration (FRAP) [2, 7]: 0.353 ± 0.110 µg/mL | Reduction Value Corresponding to the Ascorbic Acid Concentration (FRAP) [2, 8]: 0.353 ± 0.201 µg/mL | Reduction Value Corresponding to the Ascorbic Acid Concentration (FRAP) [2, 9]: 0.504 ± 0.258 µg/mL | Effect on release of nitric oxide NOx (in words) (HT29 cells [3]): statistically insignificant stimulating effect | Effect on release of nitric oxide NOx (in words) (CCD 841 CoTr cells [4]): reduced the level of this molecule | viability at 24 h, 25 μg/mL [5]: 87.3 ± 2.11% | Cells in late apoptosis, more than in the control (CCD 841 CoTr cells [6]): 3.12% | Percentage of cells in early apoptosis (CCD 841 CoTr cells [6]): 2.90 ± 0.74% | Percentage of cells in late apoptosis (CCD 841 CoTr cells [6]): 8.72 ± 1.91 % | Percentage of cells in necrosis (CCD 841 CoTr cells [6]): 1.08 ± 0.56 % | Reduction in the number of viable normal cells compared to the control (CCD 841 CoTr cells [6]): 5.02%

CCCCCc1cc(O)c2c(c1)OC(C)(CCC=C(C)C)C=C2 (centres unmarked) [CBC, cannabichromene]
Percentage of cells in early apoptosis (HT29 cells [1]): 1.36 ± 0.18% | Percentage of cells in late apoptosis (HT29 cells [1]): 6.84 ± 0.71 % | Percentage of cells in necrosis (HT29 cells [1]): 1.18 ± 0.39% | Reduction in the number of viable cells compared to the control (HT29 cells [1]): 7.13% | viability at 25 µg/mL (HT29 cells [1]): 88 ± 2.34% | Reduction Value Corresponding to the Ascorbic Acid Concentration (FRAP) [2, 7]: 0.151 ± 0.001 µg/mL | Reduction Value Corresponding to the Ascorbic Acid Concentration (FRAP) [2, 8]: 0.453 ± 0.104 µg/mL | Reduction Value Corresponding to the Ascorbic Acid Concentration (FRAP) [2, 9]: 1.008 ± 0.403 µg/mL | Effect on release of nitric oxide NOx (in words) (HT29 cells [3]): reduction in NOx levels with increasing cannabinoid concentration | Effect on release of nitric oxide NOx (in words) (CCD 841 CoTr cells [4]): reduction in NOx levels with increasing cannabinoid concentration | viability at 24 h, 25 μg/mL [5]: 91.4 ± 1.19% | Percentage of cells in early apoptosis (CCD 841 CoTr cells [6]): 2.51 ± 0.54% | Percentage of cells in late apoptosis (CCD 841 CoTr cells [6]): 5.58 ± 1.02% | Percentage of cells in necrosis (CCD 841 CoTr cells [6]): 0.54 ± 0.39% | Reduction in the number of viable normal cells compared to the control (CCD 841 CoTr cells [6]): did not significantly affect

CCCCCc1cc(O)cc(O)c1C/C=C(\C)CCC=C(C)C [abn-CBG, abnormal cannabigerol]
Cells in late apoptosis, more than in the control (HT29 cells [1]): 68.83% | Cells in necrosis, more than in the control (HT29 cells [1]): 19.03% | Percentage of cells in early apoptosis (HT29 cells [1]): 3.65 ± 0.65 % | Percentage of cells in late apoptosis (HT29 cells [1]): 71.86 ± 2.36 % | Percentage of cells in necrosis (HT29 cells [1]): 19.75 ± 2.50 % | Reduction in the number of viable cells compared to the control (HT29 cells [1]): 90.42% | viability at 25 µg/mL (HT29 cells [1]): 4.74 ± 0.39% | Reduction Value Corresponding to the Ascorbic Acid Concentration (FRAP) [2, 7]: 0.857 ± 0.316 µg/mL | Reduction Value Corresponding to the Ascorbic Acid Concentration (FRAP) [2, 8]: 1.059 ± 0.328 µg/mL | Reduction Value Corresponding to the Ascorbic Acid Concentration (FRAP) [2, 9]: 1.411 µg/mL and 1.411 ± 0.465 µg/mL | viability at 24 h, 25 μg/mL [5]: 25.5 ± 1.2% | Cells in necrosis, more than in the control (CCD 841 CoTr cells [6]): 47.27% | Early and late apoptosis together, dying cells compared to the control (CCD 841 CoTr cells [6]): 19.52% | Percentage of cells in early apoptosis (CCD 841 CoTr cells [6]): 8.57 ± 1.67 % | Percentage of cells in late apoptosis (CCD 841 CoTr cells [6]): 18.36 ± 3.62 % | Percentage of cells in necrosis (CCD 841 CoTr cells [6]): 47.55 ± 4.12 % | Reduction in the number of viable normal cells compared to the control (CCD 841 CoTr cells [6]): 66.79%
